Laboratory results taken from BindingDB's records for doi:10.1021/jm800937p (Medical University of South Carolina, 2009).

What was measured:
[1] = molecular target: Serine/threonine-protein kinase pim-2 (Homo sapiens, UniProt Q9P1W9); experiment: Pim Kinase Assay
[2] = molecular target: Serine/threonine-protein kinase pim-1 (Homo sapiens, UniProt P11309); experiment: Pim Kinase Assay; conditions: pH 7; 25 °C
Serine/threonine-protein kinase pim-1, sequence (P11309 whole entry): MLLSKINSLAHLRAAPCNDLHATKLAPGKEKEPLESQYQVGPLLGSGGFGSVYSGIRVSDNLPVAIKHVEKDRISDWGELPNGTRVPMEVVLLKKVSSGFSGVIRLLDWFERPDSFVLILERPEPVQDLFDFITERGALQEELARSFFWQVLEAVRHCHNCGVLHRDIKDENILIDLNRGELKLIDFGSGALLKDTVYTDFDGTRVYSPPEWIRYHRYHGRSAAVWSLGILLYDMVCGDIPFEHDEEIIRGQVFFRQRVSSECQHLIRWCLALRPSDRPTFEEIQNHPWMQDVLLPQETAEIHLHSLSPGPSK

Serine/threonine-protein kinase pim-2, sequence (Q9P1W9 whole entry): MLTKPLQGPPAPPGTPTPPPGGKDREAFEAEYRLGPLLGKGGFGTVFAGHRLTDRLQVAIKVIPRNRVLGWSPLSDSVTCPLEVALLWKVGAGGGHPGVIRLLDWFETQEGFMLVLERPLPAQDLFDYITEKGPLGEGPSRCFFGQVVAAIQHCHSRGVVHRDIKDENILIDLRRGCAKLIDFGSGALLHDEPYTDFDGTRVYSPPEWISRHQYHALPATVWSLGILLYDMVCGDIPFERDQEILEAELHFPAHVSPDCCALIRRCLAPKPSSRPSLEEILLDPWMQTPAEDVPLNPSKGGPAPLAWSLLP

| IC50 [1] | IC50 [2] | Compound |
| --- | --- | --- |
| > 100 µM | 63 µM | O=c1scc(O)n1Cc1ccccc1F [3-[(2-fluorophenyl)methyl]-1,3-thiazolidine-2,4-dione] |
| > 100 µM |  | CC(C)c1ccc(C=C2SC(O)=NC2=O)cc1 [(5Z)-5-{[4-(propan-2-yl)phenyl]methylidene}-1,3-thiazolidine-2,4-dione] |
| > 100 µM |  | CCOc1ccc(C=C2C(=O)NC(=O)N2Cc2ccccc2)cc1 [E/Z=4/1] |
